Ki data for one compound are collected here from US5824691A, “Guanidine derivatives as inhibitors of Na^+ /H^+ exchange in cells” (Fujisawa Pharmaceutical Co., Ltd., priority 1993, dated 1998).

This experiment deals with T1, Na^+ /H^+ exchanger (Rattus norvegicus, UniProt P26431).
T1 construct: endogenous in cells; host or cells: thymocytes freshly isolated from the thymus of a male SD (Sprague-Dawley) rat
Nature of the experiment: Inhibitory activity on Na^+ /H^+ exchange in cells (thymocyte swelling in sodium propionate medium). In kind it is cell-based. The settings on record: apparent Ki, Lineweaver-Burk plot; rate of swelling of thymocytes (male SD strain); sodium-propionate medium pH 6.8; 0.1% DMSO; 3-5 concentrations. The method, then: [2] Inhibitory activity on Na^+ /H^+ exchange in cells
Procedure was carried out according to a similar manner to the method described in Enzymology 173, 777 (1989).
One male SD strain weighing 250-300 g was sacrificed with the blow on the head. Then, the thymus was removed into ice-cold NaCl medium (140 mM sodium chloride, 1 mM potassium chloride, 1 mM calcium chloride, 1 mM magnesium chloride, 10 mM glucose and 20 mM N-2-hydroxyethylpiperazine-N'-2-ethanesulfonic acid (HEPES) - - - pH 7.3), cut in small fragments, and transferred to glass homogenizer. The cells were dissociated by gentle strokes, and the resulting suspension was filtrated through six layers of surgical gauze and the filtrate was centrifuged at 4° C. at 1000 g for 5 minutes. The pellet was resuspended in RPMI 1640 medium (pH 7.3) at room temperature to adjust final cell concentration (1×10^7 cells/ml).
This method detects the swelling that accompanies activation of Na^+ /H^+ exchanger in cells incubated with sodium propionate. Propionic acid rapidly penetrates through the membrane. […]
Cell sizing and counting were performed electrically with the Coulter Counter-Channelyzer (AT-II). […] Rate of Swelling (volume/min.) was measured by using 3-5 concentrations of test compound. Then, apparent Ki value of test compound was calculated by using Line weaver-Burk plot.

T1 sequence (P26431 whole entry): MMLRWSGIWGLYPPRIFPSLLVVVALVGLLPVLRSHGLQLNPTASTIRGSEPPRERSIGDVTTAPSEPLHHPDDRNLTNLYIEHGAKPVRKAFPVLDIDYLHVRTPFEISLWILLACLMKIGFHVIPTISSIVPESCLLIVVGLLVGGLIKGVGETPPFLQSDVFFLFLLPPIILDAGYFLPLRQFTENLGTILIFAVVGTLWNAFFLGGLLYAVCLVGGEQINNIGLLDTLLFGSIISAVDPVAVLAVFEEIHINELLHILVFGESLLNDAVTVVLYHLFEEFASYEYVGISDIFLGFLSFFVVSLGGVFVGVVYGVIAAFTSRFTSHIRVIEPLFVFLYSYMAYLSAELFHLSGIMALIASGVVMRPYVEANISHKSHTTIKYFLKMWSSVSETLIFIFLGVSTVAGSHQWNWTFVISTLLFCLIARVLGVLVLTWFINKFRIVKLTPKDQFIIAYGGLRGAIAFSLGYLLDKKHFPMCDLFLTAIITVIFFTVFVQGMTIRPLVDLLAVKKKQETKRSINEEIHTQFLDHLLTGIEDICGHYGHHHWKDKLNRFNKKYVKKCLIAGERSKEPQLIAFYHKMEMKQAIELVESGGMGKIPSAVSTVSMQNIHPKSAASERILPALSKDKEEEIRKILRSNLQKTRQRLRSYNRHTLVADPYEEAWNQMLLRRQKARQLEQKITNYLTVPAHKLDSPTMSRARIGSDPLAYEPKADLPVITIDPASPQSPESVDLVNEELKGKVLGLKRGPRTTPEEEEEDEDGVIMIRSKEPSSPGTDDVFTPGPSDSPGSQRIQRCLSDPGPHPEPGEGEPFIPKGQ

Regarding `CS(=O)(=O)c1cc(C(=O)N=C(N)N)cc(-n2cccc2)c1` [Test compound (a), 2-[3-Methylsulfonyl-5-(pyrrol-1-yl)benzoyl]guanidine], the Ki is less than 100 nM.
